Patent publication US10344019B2 (priority 2010, dated 2019)
Read-outs that look alike come from different tables or passages of the source.

Legend:
Assay in all cases: microbe, parasite or virus in culture
Format in all cases: cell-based
[1] = test system: HCV 1a RLuc cells (dicistronic genotype 1a H77 replicon, RLuc reporter); conditions: genotype 1a H77 replicon, read-out: 1a
Method: (§1) Evaluation of cell-based anti-HCV activity: Antiviral potency (EC50) was determined using a Renilla luciferase (RLuc)-based HCV replicon reporter assay. To perform the assay for genotype 1 and 2a JFH-1, HCV 1b RLuc cells (harboring a dicistronic genotype 1b Con1 replicon that encodes a RLuc reporter), or HCV 1a RLuc cells (harboring a dicistronic genotype 1a H77 replicon that encodes a RLuc reporter), or HCV 2a JFH-1 Rluc cells (harboring a dicistronic genotype 2a JFH-1 replicon that encodes a RLuc reporter) were dispensed into 384-well plates. To perform the assay for genotype 2a (with M31 present) or 2b, HCV 2a Rluc or 2b Rluc cells (both with M31 present) harboring a dicistronic NS5A chimeric genotype 2a JFH-1 replicon that encodes a RLuc reporter and either genotype 2a J6 strain NS5A gene or genotype 2b MD2b-1 NS5A gene (based on Los Alamos HCV database isolates, both with M31 present) respectively, were dispensed into 384-well plates. To perform the assay for genotype 3 and 4, HCV 3a RLuc or 4a Rluc cells harboring a dicistronic NS5A chimeric genotype 1b Con1 replicon that encodes a RLuc reporter and either a consensus genotype 3a NS5A gene or genotype 4a NS5A gene (based on Los Alamos HCV database isolates) respectively, were dispensed into 384-well plates. Compounds were re-suspended in DMSO at a concentration of 10 mM and serially diluted in DMSO either manually or using an automated pipeting instrument. Serially diluted compounds were mixed with cell culture media and added to the seeded cells. […] 72 hours later, cells were lysed and Renilla luciferase activity quantified as recommended by the manufacturer (Promega-Madison, Wis.). Non-linear regression was performed to calculate EC50 values.

[2] = test system: HCV 1b RLuc cells (dicistronic genotype 1b Con1 replicon, RLuc reporter)
Method: as §1

[3] = test system: HCV 2a JFH-1 Rluc cells (dicistronic genotype 2a JFH-1 replicon, RLuc reporter); conditions: genotype 2a JFH-1 replicon, read-out: 2a JFH
Method: as §1

[4] = test system: HCV 3a RLuc cells (NS5A chimeric genotype 1b Con1 replicon with consensus genotype 3a NS5A gene)
Method: as §1

[5] = Hepatitis C virus, RLuc reporter
[6] = Hepatitis C virus, read-out: 1b (nM)
[7] = Hepatitis C virus, read-out: 3a, genotype 3a NS5A chimeric 1b Con1 replicon
[8] = Hepatitis C virus, 72 h, Table 2, 72 hours
[9] = Hepatitis C virus, 72 h, read-out: 1b (nM)
[10] = Hepatitis C virus, read-out: 3a, Table 2, genotype 3a NS5A chimeric replicon
[11] = Hepatitis C virus, 72 h, Table 1, 72 hours

Compound	EC50 [1, 5] [nM]	EC50 [2, 6] [nM]	EC50 [3, 5] [nM]	EC50 [4, 7] [nM]	also measured
COC(=O)N[C@H](C(=O)N1CCC[C@H]1c1ncc(-c2ccc(-c3ccc4cc(-c5cnc(C6CCCN6C(=O)[C@H](NC(=O)OC)c6ccccc6)[nH]5)ccc4c3)cc2)[nH]1)C1CCOCC1 (stereo partly drawn) [Example 154]	0.001 to 0.999	0.014	0.001 to 0.999	0.001 to 0.99	
COC(=O)N[C@H](C(=O)N1CCC[C@H]1c1ncc(-c2ccc3cc(-c4ccc(-c5cnc([C@@H]6CCCN6C(=O)[C@H](NC(=O)OC)c6ccccc6)[nH]5)cc4)ccc3c2)[nH]1)C(C)C [Example 29]					EC50 [1, 8]: 0.001 to 0.999 nM; EC50 [2, 9]: 0.014 nM; EC50 [3, 8]: 0.001 to 0.999 nM; EC50 [4, 10]: 0.001 to 0.99 nM
CCN(CC)[C@@H](C(=O)N1CCC[C@H]1c1ncc(-c2ccc3cc(-c4ccc(-c5cnc([C@@H]6CC7(COCO7)CN6C(=O)[C@@H](NC(=O)OC)C(C)C)[nH]5)cc4)ccc3c2)[nH]1)c1ccccc1 (stereo partly drawn) [Example 36]					EC50 [1, 8]: 0.001 to 0.999 nM; EC50 [2, 9]: 0.01 nM; EC50 [3, 8]: 0.001 to 0.999 nM; EC50 [4, 10]: 0.001 to 0.99 nM
COC(=O)N[C@H](C(=O)N1CCC[C@H]1c1ncc(-c2ccc(-c3ccc4cc(-c5cnc([C@@H]6CCCN6C(=O)[C@H](NC(=O)OC)c6ccccc6)[nH]5)ccc4c3)cc2)[nH]1)C(C)C [Example 30]					EC50 [1, 8]: 0.001 to 0.999 nM; EC50 [2, 9]: 0.008 nM; EC50 [3, 8]: 0.001 to 0.999 nM; EC50 [4, 10]: 0.001 to 0.99 nM
COC(=O)N[C@H](C(=O)N1CCC[C@H]1c1ncc(-c2ccc3cc(-c4ccc(-c5cnc([C@@H]6CCCN6C(=O)[C@H](NC(=O)CC6CCOCC6)c6ccccc6)[nH]5)cc4)ccc3c2)[nH]1)C(C)C [Example 212]	0.001 to 0.999	0.018	0.001 to 0.999	0.001 to 0.99	
COC(=O)N[C@H](C(=O)N1CC2(C[C@H]1c1ncc(-c3ccc(-c4ccc5cc(-c6cnc([C@@H]7CCCN7C(=O)[C@H](NC(=O)OC)c7ccccc7)[nH]6)ccc5c4)cc3)[nH]1)OCCO2)C(C)C [Example 35]					EC50 [1, 8]: 0.001 to 0.999 nM; EC50 [2, 9]: 0.008 nM; EC50 [3, 8]: 0.001 to 0.999 nM; EC50 [4, 10]: 0.001 to 0.99 nM
COC(=O)N[C@H](C(=O)N1CCC[C@H]1c1ncc(-c2ccc3cc(-c4ccc5c(c4)CCc4nc([C@@H]6CCCN6C(=O)[C@H](NC(=O)OC)c6ccccc6)[nH]c4-5)ccc3c2)[nH]1)C1CCOCC1 [Example 170]	0.001 to 0.999	0.032	0.001 to 0.999	0.001 to 0.99	
COC(=O)N[C@H](C(=O)N1CCC[C@H]1c1ncc(-c2ccc3cc(-c4ccc5c(ccc6nc([C@@H]7CCCN7C(=O)[C@H](NC(=O)OC)c7ccccc7)[nH]c65)c4)ccc3c2)[nH]1)C1CCOCC1 [Example 173]	0.001 to 0.999	0.024	0.001 to 0.999	0.001 to 0.99	
COC(=O)N[C@H](C(=O)N1CCC[C@H]1c1nc2c([nH]1)COc1cc(-c3ccc4cc(-c5c[nH]c([C@@H]6CCCN6C(=O)[C@H](NC(=O)OC)c6ccccc6)n5)ccc4c3)ccc1-2)C(C)C [Example 176]	0.001 to 0.999	0.006	0.001 to 0.999	0.001 to 0.99	
COC(=O)N[C@H](C(=O)N1CCC[C@H]1c1ncc(-c2ccc(-c3ccc4cc(-c5cnc([C@@H]6CCCN6C(=O)[C@@H](NC(=O)OC)C(C)C)[nH]5)ccc4c3)cc2)[nH]1)c1ccc(OC)cc1 [Example 108]	0.001 to 0.999	0.028	1 to 44	> 5	
COC(=O)N[C@H](C(=O)N1CC2(C[C@H]1c1ncc(-c3ccc4c(c3)C(F)(F)c3cc(-c5ccc6nc(C7[C@H]8CC[C@H](C8)N7C(=O)[C@@H](NC(=O)OC)C(C)C)[nH]c6c5)ccc3-4)[nH]1)OCCO2)C(C)C (stereo partly drawn) [Example 38]					EC50 [1, 8]: 0.001 to 0.999 nM; EC50 [2, 9]: 0.003 nM; EC50 [3, 8]: 1 to 44 nM; EC50 [4, 10]: > 5 nM
COC(=O)N[C@H](C(=O)N1CCC[C@H]1c1ncc(-c2ccc3c4c(ccc3c2)-c2ccc(-c3cnc([C@@H]5CCCN5C(=O)C(c5ccccc5)N(C)C)[nH]3)cc2CO4)[nH]1)C(C)C (stereo partly drawn) [Example 3]					EC50 [1, 11]: 0.001 to 0.999 nM; EC50 [2, 9]: 0.011 nM; EC50 [3, 11]: 0.001 to 0.999 nM; EC50 ([4]; Hepatitis C virus, read-out: 3a, Table 1, genotype 3a NS5A chimeric replicon): 0.001 to 0.99 nM
COC(=O)N[C@H](C(=O)N1Cc2ccccc2C1c1nc(-c2ccc(-c3ccc4cc(-c5cnc([C@@H]6CCCN6C(=O)[C@@H](NC(=O)OC)C(C)C)[nH]5)ccc4c3)cc2)c[nH]1)C(C)C (stereo partly drawn) [Example 112]	0.001 to 0.999	0.018	1 to 44	> 5	
COC(=O)N[C@H](C(=O)N1CCC[C@H]1c1ncc(-c2ccc3cc(-c4ccc(-c5cnc([C@@H]6CCCN6C(=O)C(c6ccc7c(c6)OCO7)N(C)C)[nH]5)cc4)ccc3c2)[nH]1)C(C)C (stereo partly drawn) [Example 151]	1 to 44	0.038	1 to 44	1 to 4.99	
COC(=O)NC(C(=O)N1CCC[C@H]1c1ncc(-c2ccc(-c3ccc4cc(-c5cnc([C@@H]6CCCN6C(=O)[C@@H](NC(=O)OC)C(C)C)[nH]5)ccc4c3)cc2)[nH]1)c1ccccn1 (stereo partly drawn) [Example 183]	0.001 to 0.999	0.013	0.001 to 0.999	1 to 4.99	
COC(=O)N[C@H](C(=O)N1CCC[C@H]1c1ncc(-c2nc3cc4sc(-c5cnc([C@@H]6CCCN6C(=O)[C@@H](NC(=O)OC)C(C)C)[nH]5)nc4cc3s2)[nH]1)C(C)C [Example 141]	1 to 44	0.181	1 to 44	> 5	
COC(=O)N(C)[C@H](C(=O)N1CCC[C@H]1c1ncc(-c2ccc3cc(-c4ccc(-c5cnc([C@@H]6CCCN6C(=O)C(c6ccccc6)N6CCOCC6)[nH]5)cc4)ccc3c2)[nH]1)C(C)C (stereo partly drawn) [Example 119]	0.001 to 0.999	0.02	0.001 to 0.999	0.001 to 0.99	
COC(=O)N[C@H](C(=O)N1CCC[C@H]1c1ncc(-c2ccc(-c3ccc4cc(-c5cnc([C@@H]6CCCN6C(=O)[C@H](NC(=O)OC)c6ccccc6)[nH]5)ccc4c3)cc2)[nH]1)C(C)C [Example 27]					EC50 ([1]; Table 2, 72 hours): 0.001 to 0.999 nM; EC50 ([2]; read-out: 1b): 0.011 nM; EC50 ([3]; Table 2, 72 hours): 0.001 to 0.999 nM; EC50 ([4]; read-out: 3a, Table 2, genotype 3a NS5A chimeric replicon): 0.001 to 0.99 nM
COC(=O)N[C@H](C(=O)N1CCC[C@H]1c1ncc(-c2ccc(-c3ccc4cc(-c5cnc([C@@H]6C[C@H](C#N)CN6C(=O)[C@@H](c6ccccc6)N(C)C)[nH]5)ccc4c3)cc2)[nH]1)C(C)C [Example 118]	0.001 to 0.999	0.027	0.001 to 0.999	0.001 to 0.99	
COC(=O)N[C@H](C(=O)N1CCC[C@H]1c1nc2ccc3cc(-c4ccc5cc(-c6cnc([C@@H]7CCCN7C(=O)[C@H](NC(=O)OC)c7ccccc7)[nH]6)ccc5c4)ccc3c2[nH]1)C1CCOCC1 [Example 175]	0.001 to 0.999	0.011	0.001 to 0.999	0.001 to 0.99	
COC(=O)N[C@H](C(=O)N1CCC[C@H]1c1ncc(-c2ccc3cc(-c4ccc(-c5cnc([C@@H]6CCCN6C(=O)[C@H](NC(=O)OC)c6ccccc6C)[nH]5)cc4)ccc3c2)[nH]1)C(C)C [Example 150]	0.001 to 0.999	0.006	0.001 to 0.999	0.001 to 0.99	
COC(=O)N[C@H](C(=O)N1CCC[C@H]1c1nc2c([nH]1)-c1ccc(-c3ccc4cc(-c5cnc([C@@H]6COCCN6C(=O)[C@H](NC(=O)OC)c6ccccc6)[nH]5)ccc4c3)cc1CC2)C(C)C [Example 211]	0.001 to 0.999	0.009	1 to 44	1 to 4.99	
CN(C)C(C(=O)N1CCC[C@H]1c1ncc(-c2ccc3cc(-c4ccc(-c5cnc([C@@H]6CCCN6C(=O)[C@H](C6CCOCC6)N(C)C)[nH]5)cc4)ccc3c2)[nH]1)c1ccccc1 (stereo partly drawn) [Example 156]	0.001 to 0.999	0.028	0.001 to 0.999	0.001 to 0.99	
COC(=O)N[C@H](C(=O)C1CCSC1c1ncc(-c2ccc(-c3ccc4cc(-c5cnc([C@@H]6CCCN6C(=O)[C@H](NC(=O)OC)c6ccccc6)[nH]5)ccc4c3)cc2)[nH]1)C(C)C (stereo partly drawn) [Example 131]	0.001 to 0.999	0.009	0.001 to 0.999	0.001 to 0.99	
